# Results: patent US9174917B2, “Bexarotene analogs” (Arizona Board of Regents on Behalf of Arizona State …, priority 2010, dated 2015)
# What was measured:
# RXR = settings: from the literature; cited from earlier work
# CTCL cells = test: DNA microarray gene expression analysis in CTCL cells; format: cell-based, human; settings: 4-hour treatment, versus ethanol vehicle control
# Excerpt: DNA microarray analysis is a method to assess genome-wide gene expression by simultaneously quantitating mRNA levels from all or a subset of genes in a genome and comparing these levels between a control and an experimental sample. These changes are compared, such as in as wild type versus mutant strains or cells with no treatment compared to cells treated with a reagent. RNA is extracted from the two cell types, and either converted to cDNA or amplified to cRNA, and then this message pool is used to assess gene expression changes. Both pools of labeled message are hybridized to a DNA microarray (or “gene chip”). These microarrays have all genes in the genome spotted onto the array in a precise fashion, such that this chip experiment becomes a genome-wide northern blot, assaying the message levels of all genes in the cells. Since the control and the experimental are hybridized to the same chip, there can be direct comparisons performed between the starting mRNA levels of the two, looking for genes that are under or over expressed in the experimental as compared to the control, analyzing the intensity of the hybridization of both cDNA pools.
# The total RNA will be isolated from human CTCL cells, either untreated or treated with bexarotene or the appropriate analog. The RNA quality and integrity will be tested before hybridization using denaturing gel electrophoresis as well as reverse transcription followed by PCR. Once high quality RNA is isolated, labeled cRNA can be generated with the Genisphere 350 kit. Microarrays are readily available for such tests, for example, human microarrays can be obtained from Washington University St. Louis (Human HEEBO microarrays), or alternatively from the Toronto Microarray Centre (Toronto, Canada).
# CTCL cells were treated bexarotene or ethanol vehicle control and total RNA was extracted after 4-hour treatment using the BioRad Aurum Total RNA Mini kit. Total RNA extracted was utilized to produce cRNA using a Genisphere 350 kit and was used to hybridize human HEEBO microarray slides obtained from GCAT (Genome Consortium for Active Teaching). The Genisphere 350 kit high sensitivity protocol was used and representative results were obtained (data not shown). […] Likewise, there was a 2.9-fold downregulation of REEP, a gene that occurs in a deleted segment of human 5q31 in malignant myeloid diseases; and 2.6-fold downregulation of RAC GAP1, a GTPase activating protein of RAC, a protein required for malignant cell movement106; and 2.5-fold downregulation of karyopherin alpha 1 (importing alpha 5), a protein required for STAT1 import into the nucleus. […]
structure (smiles),measurement,setting,value
Cc1cc2c(cc1C1(c3ccc(C(=O)O)cc3)CC1)C(C)(C)CCC2(C)C [Compound 105],reported / documented RXR activity,RXR,"potent, RXR-selective agonists"
CC(/C=C/C1(c2cc3c(cc2C)C(C)(C)CCC3(C)C)CC1)=C\C(=O)O [Compound 106],reported / documented RXR activity,RXR,"potent, RXR-selective agonists"
C=C(c1ccc(C(=O)O)cc1)c1cc2c(cc1C)C(C)(C)CCC2(C)C [bexarotene],downregulation of RAC GAP1,CTCL cells,2.6 fold
same,downregulation of REEP,CTCL cells,2.9 fold
same,downregulation of karyopherin alpha 1 (importing alpha 5),CTCL cells,2.5 fold
same,upregulation of death associated protein kinase 3,CTCL cells,4.3 fold
same,upregulation of endothelin converting enzyme 1,CTCL cells,4.6 fold
same,upregulation of urocortin,CTCL cells,3.5 fold
